These are literature values, as cited in patent US20250195455A1, “COMBINATION NASAL AND ORAL THERAPY FOR WEIGHT LOSS” (priority 2022, published 2025).

Read-outs that look alike come from different tables or passages of the source.

The conditions of this data set: for evidence of weight loss: no drug trials for weight loss; for Average weight loss/one year: vs. 3% placebo.

Turning to `CNCCC(Oc1ccc(C(F)(F)F)cc1)c1ccccc1` (centres unmarked) [Fluoxetine], the “evidence of weight loss” value was “No evidence of weight loss”.

As to Albeglutide, the “Average weight loss vs. placebo” value (vs. placebo) was 2.9 kg./year.

Consider `C[C@H]1CNCCc2ccc(Cl)cc21` [Lorcaserin], for which, under “per year, vs. placebo”, the “weight loss/year vs. placebo” value is on record as 3-5%.

On to `CCN(CC)C(C)C(=O)c1ccccc1` (centres unmarked) [Diethylpropion], for which the “patients that have 5% weight loss/12 weeks” value is recorded as 80%, the “patients that have 10% weight loss/12 weeks” value is 50% and the “Average weight loss/one year” value is on record as 10%.

On to `CC1(C)O[C@@H]2[C@@H](CO[C@@]3(COS(N)(=O)=O)OC(C)(C)O[C@@H]23)O1` [Topiramate], for which the “efficacy (vs. placebo)” value (vs. placebo) is “Minimal, if any efficacy”.

As for “Semaglutide (HAEGTFTSDVSSYLEGQAAKEFIAWLVKGRG; Glucagon-like peptide 1(7-37) semaglutide; Aib8, R34K, C18 diacid side chain; UniProt P01275 98-128, looked up) [GLP-1 agonist]”, the “Average weight loss vs. placebo” value (vs. placebo) was 2.9 kg./year.

With `C[C@H]1[C@H](c2ccccc2)OCCN1C` [Phendimetrazine], the “patients that have 5% weight loss/12 weeks” value is 80%, the “patients that have 10% weight loss/12 weeks” value is 50% and the “Average weight loss/one year” value is given as 10%.

As for Dulaglutide, the “Average weight loss vs. placebo” value (vs. placebo) is listed as 2.9 kg./year.

`CCCCCCCCCCC[C@@H](C[C@@H]1OC(=O)[C@H]1CCCCCC)OC(=O)[C@H](CC(C)C)NC=O` [Orlistat]: the “weight loss (vs. placebo)/6 months” value (6 months, vs. placebo) was 5%. Also, the net loss result runs as follows: (decreased fat absorption) “approximately 500 kcal/day”; (equivalent of the kcal/day net loss) 1 lb./week.

Regarding `CC(C)(N)Cc1ccccc1` [Phentermine], the “patients that have 5% weight loss/12 weeks” value is reported as 80%, the “patients that have 10% weight loss/12 weeks” value is 50% and the “Average weight loss/one year” value was 10%.

For `C[C@@H](Cc1ccccc1)N(C)Cc1ccccc1` [Benzphetamine], the “patients that have 5% weight loss/12 weeks” value is 80%, the “patients that have 10% weight loss/12 weeks” value was 50% and the “Average weight loss/one year” value is listed as 10%.

For the compound `CN[C@H]1CC[C@@H](c2ccc(Cl)c(Cl)c2)c2ccccc21` [Sertraline], the “evidence of weight loss” value is recorded as “No evidence of weight loss”.

On to Lixisenatide, for which the “Average weight loss vs. placebo” value (vs. placebo) is on record as 2.9 kg./year.
